In ChEMBL document CHEMBL3507680, “University of Dundee, Gates Library screen for HepG2 cell viability”:

Assay: Human HepG2 cell viability assay in 384 well format
Format: toxicity, cell-based
Parameters: dose 125 nL, time 70.5 hour; concentration not given beside the values
Conditions: HepG2 cells, read-out: Inhibition

Structure (SMILES): Cc1nc(CNCc2ccc(N3CCC(CO)CC3)nc2)cs1
- cytotoxicity at 70.5 h: -1.44%

Structure (SMILES): CC(=O)N1CCC(C(=O)N(CC(F)F)c2cccc(Cl)c2)CC1
- cytotoxicity at 70.5 h: 0.334%

Structure (SMILES): NC(=O)C(NC(=O)CSCc1ccc(Cl)s1)c1ccccc1 (configuration not stated)
- cytotoxicity at 70.5 h: -1.53%

Structure (SMILES): O=C(Nc1cccnc1)C1=Cc2ccccc2OC1
- cytotoxicity at 70.5 h: 7.74%

Structure (SMILES): CCC(C)NC(=O)CS(=O)(=O)Cc1ccccc1Cl (configuration not stated)
- cytotoxicity at 70.5 h: -7.35%

Structure (SMILES): CNC(=O)C1CCCCN1C(=O)c1csc(-c2ccc(C)cc2)n1 (configuration not stated)
- cytotoxicity at 70.5 h: -9.54%

Structure (SMILES): COc1cccc(COC(C)C(=O)N(C)Cc2nnc3n2CCC3)c1 (configuration not stated)
- cytotoxicity at 70.5 h: -3.46%

Structure (SMILES): CC(C)N(C)CCCNC(=O)c1cnn(C(C)C)c1C(F)(F)F
- cytotoxicity at 70.5 h: 13.9%

Structure (SMILES): O=S1(=O)CCC(c2nnc(-c3cnc4onc(C5CCCC5)c4c3)o2)C1 (configuration not stated)
- cytotoxicity at 70.5 h: 20.9%

Structure (SMILES): COc1nc(N2CCNCC2)ncc1Br
- cytotoxicity at 70.5 h: -9.1%

Structure (SMILES): CNC(=O)Cc1noc(-c2cc3c(s2)CCCC3)n1
- cytotoxicity at 70.5 h: -8.17%

Structure (SMILES): Cc1cccc2nc(CN3CCC(Cn4ccnn4)CC3)cc(=O)n12
- cytotoxicity at 70.5 h: -3.54%

Structure (SMILES): CC(C)(C)C(=O)N1CCCN(c2ncnc3nc(N)ccc23)CC1
- cytotoxicity at 70.5 h: -1.35%

Structure (SMILES): CC(C)OCCC1CCCCN1S(C)(=O)=O (configuration not stated)
- cytotoxicity at 70.5 h: -8.81%

Structure (SMILES): CCN(CC)S(=O)(=O)NC(C)C(=O)N(C)C (configuration not stated)
- cytotoxicity at 70.5 h: 0.169%

Structure (SMILES): Fc1cccc(C(NCc2ncc[nH]2)c2ccccn2)c1 (configuration not stated)
- cytotoxicity at 70.5 h: -6.19%

Structure (SMILES): Clc1cccc(C(NCc2ncc[nH]2)c2ccccn2)c1 (configuration not stated)
- cytotoxicity at 70.5 h: 1.18%

Structure (SMILES): COc1ccc(CNC(=O)N2CCc3sccc3C2)cc1O
- cytotoxicity at 70.5 h: -10.2%

Structure (SMILES): O=C(Cn1nc(-c2ccc(F)cc2)oc1=O)NCC1CCCO1 (configuration not stated)
- cytotoxicity at 70.5 h: -3.49%

Structure (SMILES): CN(CC(=O)N1CCCC1)C(=O)c1ccccc1F
- cytotoxicity at 70.5 h: -13.9%

Structure (SMILES): Cc1noc(CNc2cc3c(cc2Cl)OCCCO3)n1
- cytotoxicity at 70.5 h: -14.8%

Structure (SMILES): CS(=O)(=O)NCCC(=O)Nc1ccccc1N1CCc2ccccc21
- cytotoxicity at 70.5 h: -22.1%

Structure (SMILES): CCN(Cc1cc(Br)ccc1F)C(=O)C(C)NC(N)=O (configuration not stated)
- cytotoxicity at 70.5 h: -19.1%

Structure (SMILES): Cc1nc(Cn2cnc3c(c(Br)nn3C)c2=O)cs1
- cytotoxicity at 70.5 h: 11.6%

Structure (SMILES): Cc1nnc(CN(C)CCc2nc(-c3cccc(Cl)c3)no2)n1C
- cytotoxicity at 70.5 h: -13.1%

Structure (SMILES): N#CCCN(CC(=O)Nc1ccc(Br)cc1Cl)Cc1cccnc1
- cytotoxicity at 70.5 h: -1.52%

Structure (SMILES): N#Cc1cc(F)ccc1NCC1CCN(S(=O)(=O)C(F)F)CC1
- cytotoxicity at 70.5 h: -14.3%

Structure (SMILES): O=C(CCC(F)(F)F)NCC1CCCS1 (configuration not stated)
- cytotoxicity at 70.5 h: -6.67%

Structure (SMILES): CC(NC(N)=O)C(=O)NCc1cc(Br)ccc1F (configuration not stated)
- cytotoxicity at 70.5 h: -7.15%

Structure (SMILES): Cc1nc(NS(=O)(=O)c2ccc(F)c(Br)c2)no1
- cytotoxicity at 70.5 h: -2.96%

Structure (SMILES): Cc1cc(F)cc(S(=O)(=O)Nc2noc(C)n2)c1
- cytotoxicity at 70.5 h: -1.08%

Structure (SMILES): O=c1oc(-c2ccc(F)cc2)nn1CC1CCCCO1 (configuration not stated)
- cytotoxicity at 70.5 h: -3.87%

Structure (SMILES): O=C(CN1CCCC(c2ncc[nH]2)C1)NCCCN1CCCCCC1=O (configuration not stated)
- cytotoxicity at 70.5 h: -10.5%

Structure (SMILES): CCc1noc(CNc2cc3c(cc2Cl)OCCO3)n1
- cytotoxicity at 70.5 h: 15.1%

Structure (SMILES): COC(=O)C1CCCN1C(=O)c1ccc(Br)cc1F (configuration not stated)
- cytotoxicity at 70.5 h: 12.6%

Structure (SMILES): CCn1c(C)cc(C(=O)N2CCC(NC(=O)c3cc(C)no3)CC2)c1C
- cytotoxicity at 70.5 h: -112%

Structure (SMILES): O=C(CNc1cc(-n2cnnn2)ccc1F)Nc1ccccc1Cl
- cytotoxicity at 70.5 h: -114%

Structure (SMILES): Cc1ccccc1CC(=O)NS(=O)(=O)c1cccc2cnccc12
- cytotoxicity at 70.5 h: -40.8%

Structure (SMILES): NC(=O)CCCNC(=O)Cc1csc(Cc2ccccn2)n1
- cytotoxicity at 70.5 h: -135%

Structure (SMILES): Cc1nc(-c2ccco2)ccc1C(=O)NCCC(=O)N1CCCCC1
- cytotoxicity at 70.5 h: -103%

Structure (SMILES): Cc1nc(-c2ccco2)ccc1C(=O)NCCN1CCN(C)CC1
- cytotoxicity at 70.5 h: -114%

Structure (SMILES): N#Cc1c(F)cccc1Nc1cnn(CC(N)=O)c1
- cytotoxicity at 70.5 h: -112%

Structure (SMILES): COC(C)Cc1nc(-c2cnn3c(C)cc(C)nc23)no1 (configuration not stated)
- cytotoxicity at 70.5 h: -97.5%

Structure (SMILES): Cc1cc(C)c(S(=O)(=O)Nc2cccc3c2OCCO3)cc1C(=O)O
- cytotoxicity at 70.5 h: -27.2%

Structure (SMILES): CCC(CC)NC(=O)c1nc2n(n1)-c1ccccc1S(=O)(=O)N2
- cytotoxicity at 70.5 h: -82.7%

Structure (SMILES): Cc1ncc(C(=O)OCC2CCN(c3ccccc3)C2)s1 (configuration not stated)
- cytotoxicity at 70.5 h: -126%

Structure (SMILES): Cn1cccc1C(=O)NC(C)(C(N)=O)c1cccc(Cl)c1 (configuration not stated)
- cytotoxicity at 70.5 h: -98.6%
